Broadly, the pKa is the pH at which an ionisable group is half protonated.

A short description of series [1]: Particle size, PdI and zeta potential of mRNA-encapsulating LNPs (dynamic light scattering). Format: physicochemical. To be noted: mRNA-encapsulating LNP, cationic lipid:DOPC:Chol=55:5:40 + about 1 mol DMG-PEG2k; for PdI / particle size: dynamic light scattering; for zeta potential: physiological pH. How it is done: A 10 mM ethanol solution of cationic lipid, a 5 mM ethanol solution of DOPC, and a 10 mM ethanol solution of Chol were mixed at desired ratio (cationic lipid:DOPC:Chol=55:5:40 (molar ratio)) in an Eppendorf tube to achieve the total lipid amount of 720 nmol. To the obtained mixture was further added DMG-PEG2k (2 mM ethanol solution) in an amount of about 1 mol with respect to the total amount 100 mol of cationic lipid, DOPC, and Chol, and then ethanol was added to prepare an ethanol solution of the lipid (total amount: 360 μL).
An acidic buffer solution (total amount: 1080 μL) of nucleic acid was prepared by weighing 7.2 μg of mRNA solution (0.6 mg/mL) in a 5 mL tube and adding acidic malate buffer (20 mM, pH 3.0) containing NaCl at a final concentration of 30 mM.
An acidic buffer solution of nucleic acid and an ethanol solution of lipid were each weighed in a syringe. Using an ultra high-speed nanomedicament producing apparatus NanoAssmblr (manufactured by Precision NanoSystems), LNP was prepared under the conditions of addition rate of acidic buffer solution of nucleic acid: 3 mL/min, addition rate of ethanol solution of lipid: 1 mL/min, and syringe holder temperature: 25° C., and collected in a 15 mL tube. MES buffer (pH 6.5) (3000 μL) was added to the 15 mL tube, the obtained mixture was transferred to Amicon Ultra 4, and ultrafiltration was performed under centrifugation conditions (25° C., 1000 g, 6 min) to concentrate the mixture to about 100 μL. The obtained concentrate was diluted with PBS to 4 mL, and the mixture was concentrated again under centrifugation conditions (25° C., 1000 g, 6 min), and this operation was performed twice. The obtained concentrate was diluted with PBS to a lipid concentration of 2 mM to give a dispersion containing LNP.
The particle size, PdI (Polydispersity Index), and zeta potential of the mRNA-encapsulating LNP prepared by the method of the above-mentioned 1 were measured by a dynamic light scattering method. In Comparative Example, the cationic lipid described in the aforementioned Table 3 were used.

The nature of series [2]: Measurement of Liposomal pKa of LNP (TNS fluorescence). It counts as physicochemical. Particulars: LNP without nucleic acid, cationic lipid:DOPC:Chol=52.5:7.5:40 + about 1.5 mol DMG-PEG2k; pH at which relative TNS fluorescence intensity was 50%. How it is done: Lipid nanoparticles (LNP) without containing nucleic acid were used for the evaluation of Liposomal pKa.
A 10 mM ethanol solution of cationic lipid, a 5 mM ethanol solution of DOPC, and a 10 mM ethanol solution of Chol were mixed at desired ratio (cationic lipid:DOPC:Chol=52.5:7.5:40 (molar ratio)) in an Eppendorf tube to achieve the total lipid amount of 720 nmol. To the obtained mixture was further added DMG-PEG2k (2 mM ethanol solution) in an amount of about 1.5 mol with respect to the total amount 100 mol of cationic lipid, DOPC, and Chol, and then ethanol was added to prepare an ethanol solution of the lipid (total amount: 360 μL).
An acidic malic acid buffer (20 mM, pH 3.0) (1080 μL) containing NaCl at a final concentration of 30 mM and an ethanol solution (360 μL) of lipid were each weighed in a syringe. Using an ultra high-speed nanomedicament producing apparatus NanoAssmblr (manufactured by Precision NanoSystems), LNP was prepared under the conditions of addition rate of acidic buffer solution: 3 mL/min, addition rate of ethanol solution of lipid: 1 mL/min, and syringe holder temperature: 25° C., and collected in a 15 mL tube. MES buffer (pH 6.5) (3000 μL) was added to the 15 mL tube, the obtained mixture was transferred to Amicon Ultra 4, and ultrafiltration was performed under centrifugation conditions (25° C., 1000 g, 6 min) to concentrate the mixture to about 100 μL. The obtained concentrate was diluted with PBS to 4 mL, and the mixture was concentrated again under centrifugation conditions (25° C., 1000 g, 6 min), and this operation was performed twice. The obtained concentrate was diluted with PBS to a lipid concentration of 0.5 mM to give a dispersion containing LNP.
20 mM Citrate buffer, sodium phosphate buffer, and tris HCl buffer, each containing NaCl at a final concentration of 150 mM and adjusted to various pHs within the range of pH 3.0 to 10.0, were prepared. TNS (manufactured by Sigma) was diluted with ultrapure water to 0.6 mM. TNS solution (2 μL), dispersions (12 μL) containing LNP prepared in [Experimental Example 1], 1., and buffers adjusted to various pHs (186 μL) were added to a black 96 well plate. The plate was protected from light and shaken at 400 rpm for 10 min. The fluorescence intensity (excitation: 321 nm/emission: 447 nm) was measured using a plate reader (manufactured by TECAN). The relative fluorescence intensity was calculated as a percentage, with the maximum value of the fluorescence intensity in each LNP being 100% and the minimum value being 0%. Furthermore, the pH at which the relative fluorescence intensity was 50% was taken as Liposomal pKa. In Comparative Example, the cationic lipid described in the aforementioned Table 3 were used.

The subject of series [3] is BALB/c mouse. Nature of the series: Evaluation of in vivo gene expression (luciferase mRNA-encapsulating LNP, IVIS of isolated organs). How it is done: (§1) LNP encapsulating mRNA that expresses luciferase (cationic lipid:DOPC:Chol:DMG-PEG2k=55:5:40:1 (molar ratio)) was prepared by the method described in [Experimental Example 2], 1.
The prepared each mRNA-encapsulating LNP dispersion was administered from the tail vein of BALB/c mouse (male, 5-week-old). The dose of mRNA was set to 0.05 mg per 1 kg body weight of the mouse, and the dose of the mRNA-encapsulating LNP dispersion was set to 10 μL per 1 g body weight of the mouse. After 4.5 hr from the administration of the mRNA-encapsulating LNP dispersion, a PBS solution of D-luciferin potassium was administered into the abdominal cavity of the mouse. The dose of D-luciferin potassium was set to 3 mg per mouse, and the dose of the PBS solution of D-luciferin potassium was set to 200 μL per mouse. After 15 min from the administration of the PBS solution of D-luciferin potassium, the mouse was euthanized, and the liver, spleen, kidney, heart, and lung were isolated. The luminescence in each organ was quantified using an in vivo imaging system (IVIS) with an exposure of 10 sec. The amount of luminescence in each organ was quantified by image analysis using Live Imaging software attached to IVIS. The amount of luminescence (photons/sec) was calculated from the acquired image and used as an index of gene expression activity. “E+0a” (a: integer) indicated in Table 7 and Table 8 means “10^a”. For example, “1.0E+02” means “1.0×10^2”. In Comparative Example, the cationic lipid described in the aforementioned Table 3 were used.

The test system of series [4] is HeLa cells. Nature of the series: Evaluation of in vitro gene expression in HeLa cell (luciferase mRNA-encapsulating LNP). Format: cell-based, human. Particulars: for cumulative luciferase luminescence intensity over 24 hr: luciferase mRNA 0.4 μg per dish, LNP cationic lipid:DOPC:Chol:DMG-PEG2k=55:5:40:1; for gene expression activity compared to Comparative Example: result in words. How it is done: as §1
HeLa cells, which are human cervical cancer cells, were seeded in a 3.5 cm dish at 5.0×10^4 cells/2 mL/Dish 24 hours before transfection. After 24 hours, the medium was exchanged with a culture medium (D-MEM) containing 0.1 mM D-luciferin. Prepared mRNA-encapsulating LNP was diluted with PBS such that the concentration of mRNA was about 8 μg/mL. The diluted mRNA-encapsulating LNP solution (about 50 μL, mRNA: 0.4 μg) was added to the 3.5 cm dish and set in an incubator luminometer KronosDio. The luminescence intensity of luciferase was measured for 2 min every one hour. The cumulative luciferase luminescence intensity for 24 hr was calculated from the obtained time change of expression. For example, “1.0E+06” means “1.0×10^6”. In Comparative Example, the cationic lipid described in the aforementioned Table 3 were used.

Structures are written as SMILES.

In the case of `CCCCCCCCCCC(CCCCCCCCCC)C(=O)Oc1ccc(CC(=O)OCCSSCCOC(=O)CN(C)C)cc1` [Example 2], in series [1], the PdI is reported as 0.072, the particle size is given as 84 nm and the zeta potential is −2.9 mV. In addition, in series [2], the pKa amounted to 5.7.
For the compound `CCCCCCCCCCCCCCCCC(CCCCCCCCCCCCCCCC)C(=O)Oc1ccc(CC(=O)NCCSSCCNC(=O)CCCN(C)C)cc1` [Example 20], in series [3] (spleen, relative to O-Ph-P4C2 LNP = 1.00), the “relative value based on Comparative Example (amount of luminescence in spleen)” value is 0.05. Moreover, the “amount of luminescence in each organ: heart” value in series [3] (tail vein, mRNA 0.05 mg/kg, 4.5 hr + 15 min after administration, heart) amounted to 6.26E+05 photons/sec. The “amount of luminescence in each organ: kidney” value in series [3] (tail vein, mRNA 0.05 mg/kg, 4.5 hr + 15 min after administration, kidney) amounted to 4.34E+05 photons/sec. Besides, in series [3] (tail vein, mRNA 0.05 mg/kg, 4.5 hr + 15 min after administration, liver), the “amount of luminescence in each organ: liver” value is 4.95E+05 photons/sec. In addition, in series [3] (tail vein, mRNA 0.05 mg/kg, 4.5 hr + 15 min after administration, lung), the “amount of luminescence in each organ: lung” value is reported as 3.68E+05 photons/sec. For the same compound, the “amount of luminescence in each organ: spleen” value in series [3] (tail vein, mRNA 0.05 mg/kg, 4.5 hr + 15 min after administration, spleen (Table 7)) is reported as 5.18E+05 photons/sec. In addition, in series [2], the pKa worked out at 8.8.
With `CCCCCCCCCCCCCCCCC(CCCCCCCCCCCCCCCC)C(=O)Oc1ccc(CC(=O)OCCCCSSCCCCOC(=O)CCCN(C)C)cc1` [Example 41], in series [1], the PdI was 0.091, the particle size came to 80 nm and the zeta potential is 4.0 mV.
Regarding `CCCCCCCCCCCCCCCCC(CCCCCCCCCCCCCCCC)C(=O)Oc1ccc(CC(=O)OCCSSCCOC(=O)/C=C/CN(CC)CCO)cc1` [Example 40], the “cumulative luciferase luminescence intensity over 24 hr” value in series [4] is listed as 2.33E+05 RLU. Also, in series [1], the PdI is on record as 0.104, the particle size was determined as 89 nm and the zeta potential is 0.1 mV.
Taken in the same sequence, the figures for `CCCCCCCCCCCCCCCCC(CCCCCCCCCCCCCCCC)C(=O)Oc1ccc(CC(=O)OCCSSCCOC(=O)/C=C/CN(CC)CC)cc1` [Example 39] were 3.95E+04 RLU, 0.128, 107 nm and −5.3 mV.
`CCCCCCCCCCCCCCCCCC(=O)OCC(C)(COC(=O)CCCCCCCCCCCCCCCCC)C(=O)Oc1ccc(CC(=O)OCCSSCCOC(=O)NCCN(CC)CC)cc1` [Example 33]: the “cumulative luciferase luminescence intensity over 24 hr” value in series [4] was 5.38E+06 RLU. Besides, the pKa in series [2] stood at 7.1.
Consider `CCCCCCCC/C=C\CCCCCCCC(=O)Oc1ccc(CC(=O)OCC(C)(COC(=O)Cc2ccc(OC(=O)CCCCCCC/C=C\CCCCCCCC)cc2)C(=O)OCCSSCCOC(=O)NCCN(CC)CC)cc1` [Example 42], for which, in series [4], the “cumulative luciferase luminescence intensity over 24 hr” value is reported as 3.62E+07 RLU and the “gene expression activity compared to Comparative Example” value is recorded as “superior gene expression activity”. In addition, the pKa in series [2] stood at 7.3.
With `CCCCCCCCCCCCCCC(CCCCCCCCCCCCCC)C(=O)Oc1ccc(CC(=O)OCCSSCCOC(=O)CN(C)C)cc1` [Example 3], in series [1], the PdI worked out at 0.078, the particle size is 90 nm and the zeta potential is reported as −3.0 mV.
As to `CCCCCCCCCCCCCCCC(=O)OCC(C)(COC(=O)CCCCCCCCCCCCCCC)C(=O)Oc1ccc(CC(=O)OCCSSCCOC(=O)NCCN(CC)CC)cc1` [Example 32], in series [4], the “cumulative luciferase luminescence intensity over 24 hr” value is 8.77E+07 RLU and the “gene expression activity compared to Comparative Example” value was “superior gene expression activity”. For the same compound, the pKa in series [2] came out at 7.2.
For `CCCCCCCCCCCCCCCCC(CCCCCCCCCCCCCCCC)C(=O)Oc1ccc(CC(=O)OCCSSCCOC(=O)NCCN(CCCC)CCCC)cc1` [Example 27], the “cumulative luciferase luminescence intensity over 24 hr” value in series [4] is reported as 9.60E+05 RLU. In addition, the pKa in series [2] is 5.7.
Turning to `CCCCCCCCCCCCCCCCC(CCCCCCCCCCCCCCCC)C(=O)Oc1ccc(CC(=O)OCCSSCCOC(=O)/C=C/CN(C)C)cc1` [Example 38], the “cumulative luciferase luminescence intensity over 24 hr” value in series [4] is on record as 1.31E+05 RLU. Besides, in series [1], the PdI is recorded as 0.106, the particle size was 106 nm and the zeta potential is reported as −3.8 mV.
In the case of `CCCCCCCC/C=C\CCCCCCCC(=O)Oc1ccc(CC(=O)OCCSSCCOC(=O)CN(C)C)cc1OC(=O)CCCCCCC/C=C\CCCCCCCC` [Example 14], in series [1], the PdI is 0.071, the particle size stood at 67 nm and the zeta potential is −4.1 mV.
On to `CCCCCCCCCCCCCCCCC(CCCCCCCCCCCCCCCC)C(=O)Oc1ccc(CC(=O)OCCSSCCN(C)C)cc1` [Example 16], for which, in series [1], the PdI came out at 0.067, the particle size turned out to be 97 nm and the zeta potential was −2.5 mV. Further, the pKa in series [2] came out at 6.4.
For `CCCCCCCCC(CCCCCC)C(=O)Oc1ccc(CC(=O)OCCSSCCOC(=O)CN(C)C)cc1` (centres unmarked) [Example 1] the same measures were 0.072, 82 nm, −3.4 mV and 5.7.

For the origin of these results see patent publication US20250213478A1, “CATIONIC LIPID HAVING DISULFIDE BOND, LIPID MEMBRANE STRUCTURE INCLUDING SAME, NUCLEIC ACID INTRODUCTION AGENT AND PHARMACEUTICAL COMPOSITION CONTAINING ANY ONE OF SAME, METHOD FOR INTRODUCING NUCLEIC ACID INTO CELL OR TARGET CELL, AND METHOD FOR PRODUCING CELLULAR PHARMACEUTICAL” (NOF Corporation, priority 2022, published 2025).
